According to PubChem BioAssay (NCI):
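Test compounds were applied to cells in 96-well plates for 48 hours at 5 doses. GI50: concentration for 50% inhibition of growth. TGI marks complete inhibition of growth.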 Where a SMILES comes first, the peptide text is derived from it.

Key:
Experiment in all cases: inhibition of tumour cell growth, NCI panel, 48 h
EKVX NSCLC = tested on: EKVX NSCLC
M14 melanoma = tested on: M14 melanoma
HT29 colon = tested on: HT29 colon
HOP-62 NSCLC = tested on: HOP-62 NSCLC
HCC-2998 colon = tested on: HCC-2998 colon
RPMI-8226 leukemia = tested on: RPMI-8226 leukemia
TK-10 renal = tested on: TK-10 renal
MOLT-4 leukemia = tested on: MOLT-4 leukemia
PC-3 prostate = tested on: PC-3 prostate
A498 renal = tested on: A498 renal
NCI-H522 lung = tested on: NCI-H522 lung
DU-145 prostate = tested on: DU-145 prostate
CAKI-1 renal = tested on: CAKI-1 renal
OVCAR-3 ovarian = tested on: OVCAR-3 ovarian
SNB-75 CNS = tested on: SNB-75 CNS
SR leukemia = tested on: SR leukemia
MDA-MB-435 = tested on: MDA-MB-435
NCI-H226 lung = tested on: NCI-H226 lung
786-0 renal = tested on: 786-0 renal
NCI/ADR-RES ovarian = tested on: NCI/ADR-RES ovarian
OVCAR-4 ovarian = tested on: OVCAR-4 ovarian
K-562 leukemia = tested on: K-562 leukemia
UACC-257 melanoma = tested on: UACC-257 melanoma
HL-60(TB) leukemia = tested on: HL-60(TB) leukemia
HCT-116 colon = tested on: HCT-116 colon
LOX IMVI melanoma = tested on: LOX IMVI melanoma
BT-549 breast = tested on: BT-549 breast
CCRF-CEM leukemia = tested on: CCRF-CEM leukemia
IGROV1 ovarian = tested on: IGROV1 ovarian
NCI-H23 lung = tested on: NCI-H23 lung
UACC-62 melanoma = tested on: UACC-62 melanoma
U251 CNS = tested on: U251 CNS
MCF7 breast = tested on: MCF7 breast
SK-MEL-28 melanoma = tested on: SK-MEL-28 melanoma
ACHN renal = tested on: ACHN renal
COLO 205 colon = tested on: COLO 205 colon
HCT-15 colon = tested on: HCT-15 colon
MALME-3M melanoma = tested on: MALME-3M melanoma
RXF 393 renal = tested on: RXF 393 renal
OVCAR-5 ovarian = tested on: OVCAR-5 ovarian
KM12 colon = tested on: KM12 colon
SN12C renal = tested on: SN12C renal
HOP-92 NSCLC = tested on: HOP-92 NSCLC
SF-268 CNS = tested on: SF-268 CNS
SF-295 CNS = tested on: SF-295 CNS
SNB-19 CNS = tested on: SNB-19 CNS
HS 578T breast = tested on: HS 578T breast
SW-620 colon = tested on: SW-620 colon
SK-OV-3 ovarian = tested on: SK-OV-3 ovarian
SF-539 CNS = tested on: SF-539 CNS
T-47D breast = tested on: T-47D breast
MDA-MB-231 breast = tested on: MDA-MB-231 breast
SK-MEL-5 melanoma = tested on: SK-MEL-5 melanoma
OVCAR-8 ovarian = tested on: OVCAR-8 ovarian
UO-31 renal = tested on: UO-31 renal
A549 NSCLC = tested on: A549 NSCLC
SK-MEL-2 melanoma = tested on: SK-MEL-2 melanoma
NCI-H460 lung = tested on: NCI-H460 lung

For CCC(C)C1NC(=O)C(CCCCN)NC(=O)C(CCCCN)NC(=O)C(CC(C)C)NC(=O)C(CCCCN)NC(=O)C(C(C)CC)NC(=O)C(C(C)C)NC(=O)C(C(C)CC)NC(=O)C(CCCCN)NC(=O)C(CCCCN)NC(=O)C(C)NC(=O)C(CCCCN)NC(=O)C(CC(C)C)NC1=O (stereo unspecified) (cyclo(AKKIVIKLKKILK); configuration not given here), the GI50 (EKVX NSCLC) was 1330 nM, the TGI (EKVX NSCLC) was 6000 nM and the GI50 (M14 melanoma) was 1600 nM. It also gave a TGI (M14 melanoma) of 3460 nM, a GI50 (HT29 colon) of 2930 nM and a TGI (HT29 colon) of 10800 nM. It also gave a GI50 (HOP-62 NSCLC) of 1760 nM, a TGI (HOP-62 NSCLC) of 3970 nM and a GI50 (HCC-2998 colon) of 2650 nM. For the same compound, the TGI (HCC-2998 colon) was 8520 nM, the GI50 (RPMI-8226 leukemia) was 1110 nM and the TGI (RPMI-8226 leukemia) was 3740 nM. For the same compound, the GI50 (TK-10 renal) was 1870 nM, the TGI (TK-10 renal) was 4630 nM and the GI50 (MOLT-4 leukemia) was 1700 nM. It also gave a TGI (MOLT-4 leukemia) of 5290 nM, a GI50 (PC-3 prostate) of 779 nM and a TGI (PC-3 prostate) of 8520 nM. For the same compound, the GI50 (A498 renal) was 1660 nM, the TGI (A498 renal) was 3840 nM and the GI50 (NCI-H522 lung) was 1740 nM. The TGI (NCI-H522 lung) was 4700 nM, the GI50 (DU-145 prostate) was 2990 nM and the TGI (DU-145 prostate) was 10700 nM. It also gave a GI50 (CAKI-1 renal) of 1560 nM, a TGI (CAKI-1 renal) of 3760 nM and a GI50 (OVCAR-3 ovarian) of 1620 nM. It also gave a TGI (OVCAR-3 ovarian) of 3630 nM, a GI50 (SNB-75 CNS) of 1720 nM and a TGI (SNB-75 CNS) of 4350 nM. For the same compound, the GI50 (SR leukemia) was 1860 nM, the TGI (SR leukemia) was 5020 nM and the GI50 (MDA-MB-435) was 1770 nM. The TGI (MDA-MB-435) was 3800 nM, the GI50 (NCI-H226 lung) was 1210 nM and the TGI (NCI-H226 lung) was 3370 nM. The GI50 (786-0 renal) was 1800 nM, the TGI (786-0 renal) was 3640 nM and the GI50 (NCI/ADR-RES ovarian) was 1070 nM. It also gave a TGI (NCI/ADR-RES ovarian) of 5610 nM, a GI50 (OVCAR-4 ovarian) of 1280 nM and a TGI (OVCAR-4 ovarian) of 13400 nM. It also gave a GI50 (K-562 leukemia) of 1310 nM, a TGI (K-562 leukemia) of 5470 nM and a GI50 (UACC-257 melanoma) of 2420 nM. For the same compound, the TGI (UACC-257 melanoma) was 7570 nM, the GI50 (HL-60(TB) leukemia) was 2420 nM and the TGI (HL-60(TB) leukemia) was 6930 nM. It also gave a GI50 (HCT-116 colon) of 1460 nM, a TGI (HCT-116 colon) of 3070 nM and a GI50 (LOX IMVI melanoma) of 1730 nM. For the same compound, the TGI (LOX IMVI melanoma) was 3200 nM, the GI50 (BT-549 breast) was 1790 nM and the TGI (BT-549 breast) was 3960 nM. For the same compound, the GI50 (CCRF-CEM leukemia) was 2150 nM, the TGI (CCRF-CEM leukemia) was 9300 nM and the GI50 (IGROV1 ovarian) was 1970 nM. The TGI (IGROV1 ovarian) was 6180 nM, the GI50 (NCI-H23 lung) was 704 nM and the TGI (NCI-H23 lung) was 4450 nM. The GI50 (UACC-62 melanoma) was 1270 nM, the TGI (UACC-62 melanoma) was 2940 nM and the GI50 (U251 CNS) was 1590 nM. For the same compound, the TGI (U251 CNS) was 3250 nM, the GI50 (MCF7 breast) was 1870 nM and the TGI (MCF7 breast) was 5980 nM. It also gave a GI50 (SK-MEL-28 melanoma) of 1970 nM, a TGI (SK-MEL-28 melanoma) of 4610 nM and a GI50 (ACHN renal) of 2360 nM. It also gave a TGI (ACHN renal) of 6840 nM, a GI50 (COLO 205 colon) of 1740 nM and a TGI (COLO 205 colon) of 3650 nM. For the same compound, the GI50 (HCT-15 colon) was 1600 nM, the TGI (HCT-15 colon) was 3270 nM and the GI50 (MALME-3M melanoma) was 1450 nM. For the same compound, the TGI (MALME-3M melanoma) was 3300 nM, the GI50 (RXF 393 renal) was 1490 nM and the TGI (RXF 393 renal) was 3010 nM. For the same compound, the GI50 (OVCAR-5 ovarian) was 2330 nM, the TGI (OVCAR-5 ovarian) was 8180 nM and the GI50 (KM12 colon) was 2550 nM. The TGI (KM12 colon) was 8090 nM, the GI50 (SN12C renal) was 1940 nM and the TGI (SN12C renal) was 6460 nM. It also gave a GI50 (HOP-92 NSCLC) of 1270 nM, a TGI (HOP-92 NSCLC) of 3240 nM and a GI50 (SF-268 CNS) of 2590 nM. It also gave a TGI (SF-268 CNS) of 11300 nM, a GI50 (SF-295 CNS) of 1140 nM and a TGI (SF-295 CNS) of 2520 nM. It also gave a GI50 (SNB-19 CNS) of 2930 nM, a TGI (SNB-19 CNS) of 14000 nM and a GI50 (HS 578T breast) of 2000 nM. It also gave a TGI (HS 578T breast) of 5660 nM, a GI50 (SW-620 colon) of 1750 nM and a TGI (SW-620 colon) of 3590 nM. The GI50 (SK-OV-3 ovarian) was 2090 nM, the TGI (SK-OV-3 ovarian) was 5880 nM and the GI50 (SF-539 CNS) was 2050 nM. For the same compound, the TGI (SF-539 CNS) was 4380 nM, the GI50 (T-47D breast) was 1690 nM and the TGI (T-47D breast) was 6700 nM. It also gave a GI50 (MDA-MB-231 breast) of 1720 nM, a TGI (MDA-MB-231 breast) of 4250 nM and a GI50 (SK-MEL-5 melanoma) of 1010 nM. The TGI (SK-MEL-5 melanoma) was 2190 nM, the GI50 (OVCAR-8 ovarian) was 1730 nM and the TGI (OVCAR-8 ovarian) was 6400 nM. For the same compound, the GI50 (UO-31 renal) was 1380 nM, the TGI (UO-31 renal) was 2740 nM and the GI50 (A549 NSCLC) was 2260 nM. For the same compound, the TGI (A549 NSCLC) was 9640 nM, the GI50 (SK-MEL-2 melanoma) was 2060 nM and the TGI (SK-MEL-2 melanoma) was 4880 nM. It also gave a GI50 (NCI-H460 lung) of 1850 nM and a TGI (NCI-H460 lung) of 4280 nM.
